Reference: patent US20240376097A1, “BCL-2 Inhibitor” (BeiGene Ltd., priority 2020, published 2024)
Where two headings read alike, the source gives them in different places.

Assays:
[1] = target: Recombinant human Bcl-2 protein (Homo sapiens (Human), UniProt P10415); assay: Bcl-2 TR-FRET Assay; type: binding
Procedure, shortened: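 0.05 nM Bcl-2 pre-incubated 0.5 h at room temperature with 10-point compound dilutions (top final 1, 0.1, 0.02 or 0.01 uM) in 20 mM potassium phosphate pH 7.5, 50 mM NaCl, 1 mM EDTA, 0.05% Tween-20, 0.01% BSA; FITC-Bak peptide (0.5 nM) and anti-6His Tb cryptate added, 1 h. IC50 from four-parameter logistic fit.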

[2] = target: recombinant human Bcl-2-G101V protein (Homo sapiens (Human), UniProt P10415, G101V); assay: Bcl-2-G101V TR-FRET Assay; type: binding; details: Bcl-2 G101V mutant, TR-FRET; read-out: Biochemical assay (IC50, nM) Bcl-2 G101V
Procedure, shortened: (§1)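 Percent inhibition of the Bcl-2-G101V–ligand interaction was computed from the 490 nm to 520 nm emission ratio after 337 nm excitation, over increasing compound concentrations; a four-parameter logistic fit gave IC50.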

[3] = system: recombinant human Bcl-2-G101V protein; assay: Bcl-2-G101V TR-FRET Assay; type: binding; details: ratio of biochemical IC50 Bcl-2 G101V / Bcl-2 WT
Procedure, shortened: as §1

[4] = system: RS4;11 (BCL-2 dependent acute lymphoblastic leukemia cell line); assay: RS4;11 Cell Proliferation Assay; type: cell-based; details: read-out: Cellular proliferation assay (IC50, nM) RS4
Procedure, shortened: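 RS4;11 cells, 50,000 per well in RPMI-1640 with 10% FBS, treated 48 h at 37 °C with a 10-point dilution series topping at 1 μM. Viability read by CellTiter-Glo ATP luminescence; mean IC50 reported.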

[5] = system: BCL-2 G101V knock-in cell line H96 (derive from RS4;11); assay: Bcl 2-G101V Knock-In RS4;11 Cell Proliferation Assay; type: cell-based; details: RS4;11 Bcl-2 G101V knock-in clone H96, 48 hrs, CellTiter-GLO, read-out: Cellular proliferation assay (IC50, nM) RS4
Procedure, shortened: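 H96, a CRISPR-generated RS4;11 clone carrying BCL2-G101V knock-in (WES/RNA-seq validated), seeded 50,000 per well and exposed 48 h at 37 °C to 10-point dilutions topping at 1 or 10 μM. Viability by CellTiter-Glo luminescence; mean IC50.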

[6] = target: recombinant human Bcl-2 D103Y protein (Homo sapiens (Human), UniProt P10415, D103Y); assay: Bcl-2-D103Y Biochemical Assay (TR-FRET); type: binding; details: for IC50: TR-FRET, FITC labeled Bak peptide; for Ratio of Bcl-2 D103Y/Bcl-2 WT: ratio of IC50
Procedure, shortened: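 Recombinant human Bcl-2 D103Y binding to its ligand measured by TR-FRET (ex 337 nm, em 490/520 nm) with increasing compound concentrations. Percent inhibition from the 490/520 nm ratio; IC50 from four-parameter logistic fit.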

[7] = Bcl-2 wild type, TR-FRET, read-out: Biochemical assay (IC50, nM) Bcl-2 WT
[8] = wild type Bcl-2, unit inferred, read-out: Bcl-2 WT
[9] = Homo sapiens, RS4-11, RS4;11 cells

Compound	IC50 [1, 7]	IC50 [1, 8]	IC50 [2]	Ratio of Bcl-2 G101V/WT [3]	IC50 [4, 9]	IC50 ([5]; Homo sapiens)	IC50 [6]	Ratio of Bcl-2 D103Y/Bcl-2 WT [6]	IC50 ([4]; RS4;11 cells)	IC50 [5]
COc1ccc(CN2CCN(C3CC4(CCN(c5ccc(C(=O)NS(=O)(=O)c6ccc(NC[C@H]7CC[C@](C)(O)CC7)c([N+](=O)[O-])c6)c(Oc6cnc7[nH]ccc7c6)c5)CC4)C3)C(c3ccccc3C(C)C)C2)cc1C#N (some centres unmarked) [Example 132, 2-((1H-pyrrolo[2,3-b]pyridin-5-yl)oxy)-4-(2-(4-(3-cyano-4-methoxybenzyl)-2-(2-isopropylphenyl)piperazin-1-yl)-7-azaspiro[3.5]nonan-7-yl)-N-((4-((((1r,4r)-4-hydroxy-4-methylcyclohexyl)methyl)amino)-3-nitrophenyl)sulfonyl)benzamide]	0.26 nM	0.26 nM	0.92 nM	3.5	0.31 nM	2.05 nM	0.47 nM	1.3		
COc1cc(CN2CCN(C3CC4(C3)CN(c3ccc(C(=O)NS(=O)(=O)c5ccc(NC[C@H]6CC[C@](C)(O)CC6)c([N+](=O)[O-])c5)c(Oc5cnc6[nH]cc(F)c6c5)c3)C4)[C@H](c3ccccc3C(C)C)C2)ccc1OC1COC1 [Example 351]	0.042 nM	0.04 nM	0.11 nM	2.6	0.09 nM	0.13 nM	0.07 nM	1.7		
COc1cc(CN2CCN(C3CC4(C3)CN(c3ccc(C(=O)NS(=O)(=O)c5ccc(NC[C@H]6CC[C@](C)(O)CC6)c([N+](=O)[O-])c5)c(Oc5cnc6[nH]cc(F)c6c5)c3)C4)[C@H](c3ccccc3C(C)C)C2)cc2c1OC(C)(C)CC2 [Example 337, 2-((3-fluoro-1H-pyrrolo[2,3-b]pyridin-5-yl)oxy)-N-((4-((((1r,4r)-4-hydroxy-4-methylcyclohexyl)methyl)amino)-3-nitrophenyl)sulfonyl)-4-(6-((R)-2-(2-isopropylphenyl)-4-((8-methoxy-2,2-dimethylchroman-6-yl)methyl)piperazin-1-yl)-2-azaspiro[3.3]heptan-2-yl)benzamide]	0.12 nM	0.12 nM	0.37 nM	3	0.18 nM	0.63 nM	0.39 nM	3.2		
2-((1H-pyrrolo[2,3-b]pyridin-5-yl) oxy)-N-((4-((((1r,4r)-4-hydroxy-4- methylcyclohexyl)methyl)amino)- 3-nitrophenyl)sulfonyl)-4-(2-((R)- 2-(2-isopropylphenyl)-4-((7- methoxybenzofuran-5-yl)methyl) piperazin-1-yl)-7-azaspiro[3.5] nonan-7-yl)benzamide [Example 280]	0.26 nM	0.26 nM	0.56 nM	2.2			0.23 nM	0.89	0.14 nM	0.43 nM
CC(C)c1ccccc1[C@@H]1CN(Cc2ccc3c(c2)OCC3)CCN1C1CC2(CCN(c3ccc(C(=O)NS(=O)(=O)c4ccc(NC[C@H]5CC[C@](C)(O)CC5)c([N+](=O)[O-])c4)c(Oc4cnc5[nH]ccc5c4)c3)CC2)C1 [Example 304, 2-((1H-pyrrolo[2,3-b]pyridin-5-yl)oxy)-4-(2-((R)-4-((2,3-dihydrobenzofuran-6-yl)methyl)-2-(2-isopropylphenyl)piperazin-1-yl)-7-azaspiro[3.5]nonan-7-yl)-N-((4-((((1r,4r)-4-hydroxy-4-methylcyclohexyl)methyl)amino)-3-nitrophenyl)sulfonyl)benzamide]	0.13 nM	0.13 nM	0.41 nM	3.2	0.3 nM	2.3 nM	0.22 nM	1.8		
CC(C)c1ccccc1[C@@H]1CN(Cc2ccc(C3COC3)cc2)CCN1C1CC2(C1)CN(c1ccc(C(=O)NS(=O)(=O)c3ccc(NC[C@H]4CC[C@](C)(O)CC4)c([N+](=O)[O-])c3)c(Oc3cnc4[nH]cc(F)c4c3)c1)C2 [Example 362, 2-((3-fluoro-1H-pyrrolo[2,3-b]pyridin-5-yl)oxy)-N-((4-((((1r,4r)-4-hydroxy-4-methylcyclohexyl)methyl)amino)-3-nitrophenyl)sulfonyl)-4-(6-((R)-2-(2-isopropylphenyl)-4-(4-(oxetan-3-yl)benzyl)piperazin-1-yl)-2-azaspiro[3.3]heptan-2-yl) benzamide]	0.07 nM	0.069 nM	0.14 nM	2	0.08 nM	0.17 nM	0.095 nM	1.4		
COc1cc(CN2CCN(C3CC4(C3)CN(c3ccc(C(=O)NS(=O)(=O)c5ccc(NC[C@H]6CC[C@](C)(O)CC6)c([N+](=O)[O-])c5)c(Oc5cnc6[nH]ccc6c5)c3)C4)[C@H](c3ccccc3C(C)C)C2)cc2cc(C)oc12 [Example 339, 2-((1H-pyrrolo[2,3-b]pyridin-5-yl)oxy)-N-((4-((((1r,4r)-4-hydroxy-4-methylcyclohexyl)methyl)amino)-3-nitrophenyl)sulfonyl)-4-(6-((R)-2-(2-isopropylphenyl)-4-((7-methoxy-2-methylbenzofuran-5-yl)methyl)piperazin-1-yl)-2-azaspiro[3.3]heptan-2-yl) benzamide]	0.28 nM	0.28 nM	0.97 nM	3.5	0.19 nM	0.52 nM	0.71 nM	2.5		
COc1ccc(CN2CCN(C3CC4(C3)CN(c3ccc(C(=O)NS(=O)(=O)c5ccc(NC[C@H]6CC[C@](C)(O)CC6)c([N+](=O)[O-])c5)c(Oc5cnc6[nH]cc(F)c6c5)c3)C4)[C@H](c3ccccc3C(C)C)C2)cc1OC1CC1 [Example 364, 4-(6-((R)-4-(3-cyclopropoxy-4-methoxybenzyl)-2-(2-isopropylphenyl)piperazin-1-yl)-2-azaspiro[3.3]heptan-2-yl)-2-((3-fluoro-1H-pyrrolo[2,3-b]pyridin-5-yl)oxy)-N-((4-((((1r,4r)-4-hydroxy-4-methylcyclohexyl)methyl)amino)-3-nitrophenyl)sulfonyl) benzamide]	0.14 nM		0.39 nM	2.9	0.13 nM	0.2 nM	0.14 nM	1.0		
CC(C)c1ccccc1C1CN(Cc2cccc3c2OCO3)CCN1C1CC2(CCN(c3ccc(C(=O)NS(=O)(=O)c4ccc(NC[C@H]5CC[C@](C)(O)CC5)c([N+](=O)[O-])c4)c(Oc4cnc5[nH]ccc5c4)c3)CC2)C1 (some centres unmarked) [Example 115, 2-((1H-pyrrolo[2,3-b]pyridin-5-yl)oxy)-4-(2-(4-(benzo[d][1,3]dioxol-4-ylmethyl)-2-(2-isopropylphenyl)piperazin-1-yl)-7-azaspiro[3.5]nonan-7-yl)-N-((4-((((1r,4r)-4-hydroxy-4-methylcyclohexyl)methyl)amino)-3-nitrophenyl)sulfonyl)benzamide]	0.097 nM	0.097 nM	0.37 nM	3.8	0.42 nM	2.3 nM	0.57 nM	5.9		
